Tests used:
[1] = The compound was evaluated in vitro for the inhibition of rat leukocyte elastase(RLE)
[2] = The compound was evaluated in vitro for the inhibition of pancreatitic porcine elastase(PPE)

Row | SMILES | IC50 [1] [µM] | IC50 [2] [µM]
1 | CO[C@@H]1C(=O)N(C(C)=O)[C@@H]1c1ccccc1 [(3S,4R)-1-Acetyl-3-methoxy-4-phenyl-azetidin-2-one] | 0.4 | 0.7
2 | CCCC[C@@H]1C(=O)N(C(C)=O)[C@@H]1C(C)=O [(3S,4S)-1,4-Diacetyl-3-butyl-azetidin-2-one] | 37 | > 160
3 | CO[C@@H]1C(=O)N(C(C)=O)[C@@H]1C(C)=O [(3S,4S)-1,4-Diacetyl-3-methoxy-azetidin-2-one] | 11 | 26

Reference: BindingDB's records for doi:10.1016/S0960-894X(01)80714-9 (1993)
